Reference: US20150355163A1, “T-TYPE CALCIUM CHANNEL INHIBITORS FOR TREATMENT OF CANCER” (TAU THERAPEUTICS LLC, priority 2013, published 2015)
Entries after “also recorded” stand apart in the source; their conditions may differ. Read-outs that look alike come from different tables or passages of the source.

Key:
[1] = test system: T1, T-type Ca^2+ channel; assay: Inhibition of T-type Ca^2+ channel activity in a cell with the membrane potential held (patch-clamp); type: cell-based; settings: in words; for inhibition of T-type Ca^2+ channel activity: cell membrane potential about −90 mV
T1 construct: other: cell membrane potential about −90 mV, in words; other: in words; selectivity for the −90 mV state relative to −40 mV; other: cell membrane potential about −30 mV to −60 mV
Description: This disclosure further provides methods of identifying compounds that inhibit T-type Ca^2+ channel activity in a cell when the cell membrane potential is about −90 mV. These methods include determining the ability of a compound to inhibit T-type Ca^2+ channel activity in a cell when the cell membrane potential is held at about −90 mV. The membrane potential can be held at about −90 mV by techniques known in the art, such as the patch-clamp technique. The ability of a compound to inhibit T-type Ca^2+ channel activity in a cell when the cell membrane potential is about −90 mV can be determined, for example, by determining the ability of the compound to prevent growth factor-stimulated calcium entry into the cell. Calcium entry into the cell can be determined by measuring increases in levels of intracellular calcium, such as by use of a calcium sensitive fluorescent dye.
This disclosure further provides methods of identifying compounds that inhibit T-type Ca^2+ channel activity in a cell when the cell membrane potential is about −90 mV. Such compounds can be identified by measuring inhibition of T-type Ca^2+ channel activity in a cell using standard electrophysiological methods such as patch clamp or by measuring the ability of a pharmaceutical agent to block calcium entry into a cell, such as a cancer cell, when that cell is stimulated by a mitogen, such as a growth factor. Such methods are disclosed, for example, in Densmore, et al., FEBS Lett. 312:161-164 (1992); Haverstick, et al., Mol. Biol. Cell 4:173-184 (1993); and Gomora et al., J. Pharmacol. Exp. Ther. 292:96-103 (2000), the contents of which are incorporated by reference. Calcium entry can be determined by methods such as intracellular entrapment of a Ca^2+ sensitive fluorescent dye.
In some embodiments, the cell membrane potential can be controlled using a patch-clamp technique. In some embodiments cell membrane potential can be controlled using any other technique described herein or known in the art.

[2] = test system: cancer cells; assay: Cancer cell proliferation; type: cell-based; settings: in words
[3] = test system: T1, T-type Ca^2+ channel; settings: cited from earlier work; for potency for inhibition of the T-type calcium channel: in words; for IC50: read-out: IC50 for inhibiting T-type Ca^2+ channel activity
[4] = test system: T-type Ca^2+ channel; settings: ratio; cited from earlier work
[5] = test system: human glioblastoma; settings: seven day course of mibefradil, then five day course of temozolomide; cited from earlier work
[6] = target: CYP 450 3A4 (Homo sapiens, UniProt P08684); settings: in words; cited from earlier work
Chain of CYP 450 3A4 (P08684 whole entry): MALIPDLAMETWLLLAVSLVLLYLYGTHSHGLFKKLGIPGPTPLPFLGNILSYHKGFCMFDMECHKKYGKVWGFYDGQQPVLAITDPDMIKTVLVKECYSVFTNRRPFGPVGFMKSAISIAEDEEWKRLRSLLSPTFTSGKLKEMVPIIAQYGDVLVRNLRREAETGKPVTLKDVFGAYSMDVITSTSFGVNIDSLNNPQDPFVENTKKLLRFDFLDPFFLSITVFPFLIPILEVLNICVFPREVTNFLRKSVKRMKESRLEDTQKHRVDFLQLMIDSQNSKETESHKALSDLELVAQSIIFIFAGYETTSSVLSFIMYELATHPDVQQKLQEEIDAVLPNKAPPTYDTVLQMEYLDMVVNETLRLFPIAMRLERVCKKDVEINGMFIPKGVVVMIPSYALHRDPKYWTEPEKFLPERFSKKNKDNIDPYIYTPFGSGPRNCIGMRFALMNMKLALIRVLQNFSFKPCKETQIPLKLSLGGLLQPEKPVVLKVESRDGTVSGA

[7] = used by almost a million patients; cited from earlier work

SMILES | selectivity for the −90 mV state relative to −40 mV [1] | anti-proliferative activity [2] | potency for inhibition of the T-type calcium channel [3] | inhibition of T-type Ca^2+ channel activity [1] | also measured
CC(C)c1ccc(CC(=O)N[C@H](C)c2ccc(OCC(F)(F)F)cn2)cc1 [MK-8998] | decreased selectivity | without anti-proliferative activity; also recorded: little or no effect | high potency |  | 
C[C@@H](NC(=O)Cc1ccc(C2CC2)cc1)c1ccc(OCC(F)(F)F)cn1 [TTA-A2] | decreased selectivity | without anti-proliferative activity; also recorded: little or no effect | high potency |  | 
COCC(=O)O[C@]1(CCN(C)CCCc2nc3ccccc3[nH]2)CCc2cc(F)ccc2[C@@H]1C(C)C [mibefradil] | preferentially blocks the −90 mV state | inhibit cancer cell proliferation |  | inhibit | anti-proliferative activity ([2]; listed as Mibefradil): antiproliferative; preference for blocking channels at about −30 mV to −60 mV over −90 mV [4]: 10 to 1; IC50 ([3]; cell membrane potential about −30 mV to −60 mV): ≥ 100 nM; IC50 ([3]; cell membrane potential of −80 mV to −90 mV): ~1000 nM; effect on the cytotoxic effect of temozolomide [5]: significantly increased; also recorded: restored the sensitivity to temozolomide; inhibition of CYP 450 3A4 [6]: inhibition; tolerability [7]: remarkably well tolerated
COc1ccc(CCN2CCC[C@H]2COC(c2ccccc2)c2ccc(Cl)cc2)cc1 (stereo partly drawn) [TH-1177] |  |  |  | inhibit | 
O=c1[nH]c2cc(Cl)ccc2n1C1CCN(CCCC(c2ccc(F)cc2)c2ccc(F)cc2)CC1 [chlopimozide] |  | anti-proliferative |  |  | 
